In patent US20190119284A1, “ErbB Inhibitors and Uses Thereof” (The Regents of the University of California, priority 2016, published 2019):

What was measured:
Type in all cases: cell-based
NCI-H1975 = NCI-H1975 cell proliferation; settings: Homo sapiens, Table 8, n in the line below
HER2+/2VE Ba/F3 line = test: Ba/F3 proliferation assay, HER2+/2VE; settings: Mus musculus, BaF3; Tables 7 and 8
Outline: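 Ba/F3 cells combined with drug dilutions and growth factor as needed (10 ng/mL IL-3 or 6.25 ng/mL NRG), 48 h at 37° C. Proliferation by CellTiter-Glo, normalized to DMSO, fitted to log(inhibitor) vs response with variable slope; biological triplicates in technical triplicate.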

A431 = A431 cell proliferation; settings: Homo sapiens, A-431; Table 8; n in the line below
[1] = test system: parental Ba/F3 cells + IL-3; test: Ba/F3 proliferation assay, Parental + IL-3; settings: Mus musculus, BaF3; Tables 7 and 8; read-out: Ba/F3 line IC50, Parental + IL-3
Outline: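 Ba/F3 cells were combined with drug dilutions plus growth factor (10 ng/mL IL-3, or 6.25 ng/mL NRG where needed) and incubated 48 h at 37 °C. Viability read by CellTiter-Glo, normalized to DMSO. Log(inhibitor)-response fit with variable slope; biological triplicates.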

HCC827 = HCC827 cell viability; settings: Homo sapiens, compound at 1 nM, n in the line below, read-out: HCC827 (% viable at 1 nM)
Axl+ Ba/F3 cells = molecular target: T1, Axl+ Ba/F3 cells (Homo sapiens, UniProt P30530); test: Ba/F3 proliferation assay, Axl+; settings: Tables 7 and 8; read-out: Ba/F3 line IC50, Axl+
T1 sequence (P30530 1-894): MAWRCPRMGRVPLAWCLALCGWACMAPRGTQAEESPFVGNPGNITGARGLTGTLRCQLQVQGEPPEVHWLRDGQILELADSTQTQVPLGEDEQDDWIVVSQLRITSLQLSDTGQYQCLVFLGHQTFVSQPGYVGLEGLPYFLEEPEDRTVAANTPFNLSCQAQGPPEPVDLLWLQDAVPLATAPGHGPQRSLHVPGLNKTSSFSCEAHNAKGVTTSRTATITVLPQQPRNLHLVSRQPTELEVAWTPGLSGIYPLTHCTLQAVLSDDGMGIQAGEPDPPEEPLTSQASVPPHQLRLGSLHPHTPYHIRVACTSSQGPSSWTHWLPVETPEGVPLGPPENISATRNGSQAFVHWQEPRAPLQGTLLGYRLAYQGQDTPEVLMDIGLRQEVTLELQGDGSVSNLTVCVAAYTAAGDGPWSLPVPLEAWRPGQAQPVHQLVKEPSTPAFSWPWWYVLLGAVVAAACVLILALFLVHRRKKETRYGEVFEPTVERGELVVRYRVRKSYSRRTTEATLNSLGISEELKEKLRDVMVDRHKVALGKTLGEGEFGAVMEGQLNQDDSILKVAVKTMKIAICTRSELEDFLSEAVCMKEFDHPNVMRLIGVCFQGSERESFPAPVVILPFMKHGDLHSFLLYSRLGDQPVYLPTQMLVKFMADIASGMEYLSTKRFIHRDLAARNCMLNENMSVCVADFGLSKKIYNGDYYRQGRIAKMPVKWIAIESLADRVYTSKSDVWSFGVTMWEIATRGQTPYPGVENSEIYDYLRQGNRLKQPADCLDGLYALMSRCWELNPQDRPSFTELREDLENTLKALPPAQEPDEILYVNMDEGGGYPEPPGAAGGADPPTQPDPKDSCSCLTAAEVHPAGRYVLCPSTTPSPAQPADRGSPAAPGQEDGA
Protocol: To validate the screen and test the effectiveness of counter-screening with either the same 2YF/3wt Ba/F3 cell line or the parental Ba/F3's in the presence of IL-3 to remove cytotoxic primary hits, we first tested a panel of kinase inhibitors with established mechanisms of action.
For Axl+ cells, the transduced cells were spun down at 500×g for 5 min and resuspended in media supplemented with 10 ng/mL IL-3 and 3 μg/mL puromycin (Invitrogen). Cells were maintained in these conditions for 7 days, passaging as required. After 7 days the cells were spun down, washed with fresh media, and then suspended in IL-3 free media. The cells were maintained in these conditions for 2 weeks to select for an IL-3 independent population of Axl+ driven cells.
Proliferation Assays. For adherent cell lines, cells were plated onto opaque white 96 well plates (Greiner cat #655083) and allowed to adhere overnight. The following day media was changed to fresh media that contained either DMSO or the indicated concentration of drug plus NRG (50 ng/mL final concentration) as indicated. Plates were incubated at 37° C. for 72 h and proliferation was read out using Cell Titer Glo (Promega) according to the manufacturer's protocol. For Ba/F3 cell proliferation, cells, drug dilution, and any necessary growth factors (10 ng/mL IL-3 or 6.25 ng/mL NRG) were combined in a well of a 96 well plate. Plates were incubated at 37° C. for 48 h and proliferation was read out using Cell Titer Glo according to the manufacturer's protocol. For all normalized assays, proliferation was normalized to the DMSO control condition. All graphs were plotted in GraphPad Prism 6 and fit with a non-linear regression of the log(inhibitor) vs response with a variable slope where shown. All graphs are averages (+/−standard deviation) of biological triplicates each performed in technical triplicate unless otherwise noted. If only one biological replicate was performed standard deviations were derived from the technical replicates.

[2] = molecular target: 2YF/3wt + NRG Ba/F3 cells (HER2YF/HER3wt) (Homo sapiens, UniProt P04626, Y1005F/Y1023F/Y1112F/Y1127F/Y1139F/Y1196F/Y1221F/Y1222F/Y1248F, cells depend on it); test: Ba/F3 proliferation assay, 2YF/3wt + NRG; settings: Tables 7 and 8; read-out: Ba/F3 line IC50, HER2YF/HER3 + NRG
Chain of 2YF/3wt + NRG Ba/F3 cells (HER2YF/HER3wt) (P04626 whole entry Y1005F/Y1023F/Y1112F/Y1127F/Y1139F/Y1196F/Y1221F/Y1222F/Y1248F): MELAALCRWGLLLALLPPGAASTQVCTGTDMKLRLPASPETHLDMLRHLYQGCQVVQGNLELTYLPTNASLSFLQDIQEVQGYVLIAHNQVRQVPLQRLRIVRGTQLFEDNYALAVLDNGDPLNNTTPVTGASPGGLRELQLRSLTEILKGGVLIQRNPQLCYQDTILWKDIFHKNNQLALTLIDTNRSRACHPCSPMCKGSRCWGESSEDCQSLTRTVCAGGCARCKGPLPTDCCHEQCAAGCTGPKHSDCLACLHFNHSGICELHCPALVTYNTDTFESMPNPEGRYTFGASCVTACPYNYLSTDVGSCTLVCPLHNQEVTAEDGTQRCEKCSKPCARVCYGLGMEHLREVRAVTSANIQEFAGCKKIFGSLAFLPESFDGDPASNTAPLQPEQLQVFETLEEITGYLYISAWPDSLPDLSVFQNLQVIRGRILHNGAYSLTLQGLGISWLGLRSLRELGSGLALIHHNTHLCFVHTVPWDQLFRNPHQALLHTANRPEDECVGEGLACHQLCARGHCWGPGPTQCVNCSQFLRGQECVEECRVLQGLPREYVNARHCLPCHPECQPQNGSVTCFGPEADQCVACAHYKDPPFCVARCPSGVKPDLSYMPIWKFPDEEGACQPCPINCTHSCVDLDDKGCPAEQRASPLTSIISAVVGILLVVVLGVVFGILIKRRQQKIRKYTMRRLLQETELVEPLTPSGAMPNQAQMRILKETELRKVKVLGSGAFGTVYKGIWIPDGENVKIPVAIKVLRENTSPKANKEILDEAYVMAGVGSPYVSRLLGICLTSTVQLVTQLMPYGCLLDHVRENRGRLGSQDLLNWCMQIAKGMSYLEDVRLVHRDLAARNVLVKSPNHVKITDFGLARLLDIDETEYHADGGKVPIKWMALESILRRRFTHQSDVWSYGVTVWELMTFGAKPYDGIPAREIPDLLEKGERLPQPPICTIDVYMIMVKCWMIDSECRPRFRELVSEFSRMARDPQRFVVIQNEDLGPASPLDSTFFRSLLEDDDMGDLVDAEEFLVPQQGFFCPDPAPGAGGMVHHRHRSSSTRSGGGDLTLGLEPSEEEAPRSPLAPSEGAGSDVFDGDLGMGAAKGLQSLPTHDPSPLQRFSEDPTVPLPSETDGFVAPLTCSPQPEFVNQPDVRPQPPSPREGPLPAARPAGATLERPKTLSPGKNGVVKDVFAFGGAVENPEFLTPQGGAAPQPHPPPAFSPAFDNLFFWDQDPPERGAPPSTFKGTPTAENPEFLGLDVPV
Outline: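 Ba/F3 cells stably expressing HER3 and HER2 with 9 C-terminal Tyr→Phe mutations, selected for NRG dependence after IL-3 withdrawal. Cells were given DMSO or compound plus NRG (50 ng/mL final); proliferation normalized to DMSO, fit by log(inhibitor) vs response with variable slope.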

IC50 (NCI-H1975): 891 ± 18.6 nM
IC50 (HER2+/2VE Ba/F3 line): 31.4 nM
IC50 (A431): 471 ± 63.4 nM
GI50 (Axl+ Ba/F3 cells): 501 nM
GI50 [2]: 2 nM
Structure (SMILES): COc1ccc(-c2ccccc2)cc1Nc1ncnc2[nH]nc(-c3cc[nH]n3)c12 [8-096]
IC50 [1]: 1540 nM
viability at 0.001 µM (HCC827): 30.6 ± 4.2%
